Data as given in ChEMBL document CHEMBL5120905, “Examining the Role of the Linker in Bitopic N6-Substituted Adenosine Derivatives Acting as Biased Adenosine A1 Receptor Agonists” (J Med Chem, 2022).

Assays:
Type in all cases: functional, cell-based
[1] = molecular target: Adenosine receptor A2a (Homo sapiens, UniProt P29274); experiment: Agonist activity at human A2A receptor expressed in Flp-In-CHO cells assessed as cAMP accumulation incubated for 30 mins by LANCE cAMP assay
[2] = molecular target: T1, Adenosine receptor A1 (Homo sapiens, UniProt P30542); experiment: Agonist activity at human A1 receptor expressed in Flp-In-CHO cells assessed as stimulation of calcium mobilization by calcium mobilization assay
T1 sequence (P30542 whole entry): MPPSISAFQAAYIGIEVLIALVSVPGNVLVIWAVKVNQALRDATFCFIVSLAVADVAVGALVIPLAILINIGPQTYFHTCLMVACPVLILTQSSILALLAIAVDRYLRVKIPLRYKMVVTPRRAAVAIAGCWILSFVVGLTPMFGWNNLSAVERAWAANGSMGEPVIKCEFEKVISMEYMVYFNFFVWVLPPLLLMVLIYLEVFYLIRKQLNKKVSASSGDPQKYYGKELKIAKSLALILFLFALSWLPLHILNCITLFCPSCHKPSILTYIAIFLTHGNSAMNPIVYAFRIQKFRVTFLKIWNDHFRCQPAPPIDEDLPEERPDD

[3] = molecular target: T2, Adenosine receptor A2b (Homo sapiens, UniProt P29275); experiment: Agonist activity at human A2B receptor expressed in Flp-In-CHO cells assessed as cAMP accumulation incubated for 10 mins in presence of forskolin by LANCE cAMP assay
T2 sequence (P29275 whole entry): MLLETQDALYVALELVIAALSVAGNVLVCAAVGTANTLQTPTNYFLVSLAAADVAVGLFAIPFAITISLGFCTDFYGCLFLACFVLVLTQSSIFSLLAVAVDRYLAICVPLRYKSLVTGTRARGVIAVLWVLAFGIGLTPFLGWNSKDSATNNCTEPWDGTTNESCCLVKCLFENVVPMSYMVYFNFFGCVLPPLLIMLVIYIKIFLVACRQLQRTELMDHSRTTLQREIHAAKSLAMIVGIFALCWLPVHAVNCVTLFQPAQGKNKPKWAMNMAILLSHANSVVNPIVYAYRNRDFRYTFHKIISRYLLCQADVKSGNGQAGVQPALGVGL

[4] = molecular target: T1, Adenosine receptor A1; experiment: Agonist activity at human A1 receptor expressed in Flp-In-CHO cells assessed as inhibition of forskolin stimulated cAMP accumulation incubated for 30 mins by LANCE cAMP assay

Sequence of Adenosine receptor A2a (P29274 whole entry): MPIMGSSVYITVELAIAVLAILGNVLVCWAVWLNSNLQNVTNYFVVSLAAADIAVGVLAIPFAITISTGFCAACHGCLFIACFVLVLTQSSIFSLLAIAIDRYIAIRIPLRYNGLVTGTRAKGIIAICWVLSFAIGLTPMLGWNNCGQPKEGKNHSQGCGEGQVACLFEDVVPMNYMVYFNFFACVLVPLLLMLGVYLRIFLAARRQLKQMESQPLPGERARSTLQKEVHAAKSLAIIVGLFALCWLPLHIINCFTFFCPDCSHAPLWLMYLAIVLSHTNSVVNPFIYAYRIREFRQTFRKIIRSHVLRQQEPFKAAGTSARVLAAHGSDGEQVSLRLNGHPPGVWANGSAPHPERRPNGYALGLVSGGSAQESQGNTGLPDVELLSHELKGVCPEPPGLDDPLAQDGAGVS

EC50 [1] | EC50 [2] | EC50 [3] | EC50 [4] | Structure (SMILES)
389 nM | – | – | – | Nc1sc(-c2ccc(C(=O)NCCCCCCNc3ncnc4c3ncn4[C@@H]3O[C@H](CO)[C@@H](O)[C@H]3O)cc2)c(-c2cccc(C(F)(F)F)c2)c1C(=O)c1ccccc1
363 nM | > 10000 nM | 52.5 nM | 550 nM | Nc1sc(-c2ccc(C(=O)NCCc3ccc(CCNc4ncnc5c4ncn5[C@@H]4O[C@H](CO)[C@@H](O)[C@H]4O)cc3)cc2)c(-c2cccc(C(F)(F)F)c2)c1C(=O)c1ccccc1
741 nM | – | – | – | Nc1sc(-c2ccc(C(=O)NCCC#Cc3ccc(Nc4ncnc5c4ncn5[C@@H]4O[C@H](CO)[C@@H](O)[C@H]4O)cc3)cc2)c(-c2cccc(C(F)(F)F)c2)c1C(=O)c1ccccc1
